As usually defined, the IC50 is the point on the concentration scale where inhibition reaches its midpoint.

For the experiment, the target named is human P2X3 receptor (Homo sapiens (Human), UniProt P56373). As to the kind of experiment: Evaluation of human P2X3 receptor inhibitory activity (Fluo-3 calcium fluorescence, FDSS 3000, ATP stimulation).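 Note: stimulus was 50 nM ATP with fluorescence followed for 3 min, and the response per well was peak post-ATP fluorescence divided by the reading at measurement start.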 In kind it is cell-based. The conditions noted are these: C6BU-1 cells stably expressing human P2X3 receptor.
Chain of human P2X3 receptor (P56373 whole entry): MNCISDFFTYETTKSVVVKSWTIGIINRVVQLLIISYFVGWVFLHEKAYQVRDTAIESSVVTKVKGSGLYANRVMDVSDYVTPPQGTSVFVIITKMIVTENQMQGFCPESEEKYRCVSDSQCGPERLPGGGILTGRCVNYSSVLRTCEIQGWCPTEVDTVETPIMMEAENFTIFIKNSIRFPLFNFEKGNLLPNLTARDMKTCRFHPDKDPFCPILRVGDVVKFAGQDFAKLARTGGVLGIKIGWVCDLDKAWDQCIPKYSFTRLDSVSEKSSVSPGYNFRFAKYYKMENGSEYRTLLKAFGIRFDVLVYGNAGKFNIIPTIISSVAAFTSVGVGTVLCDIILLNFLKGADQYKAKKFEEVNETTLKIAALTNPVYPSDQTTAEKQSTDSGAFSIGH

With `CCOC(=O)[C@@H](C)Cn1c(=O)[nH]/c(=N\c2ccc3oc(CO)cc3c2)n(Cc2ccc(Cl)cc2)c1=O` [Compound I-1971], the IC50 was 61 nM. Regarding `CCn1c(=O)[nH]/c(=N\c2ccc(Oc3ccc(-c4ncn[nH]4)cc3)cc2)n(Cc2ccc(Cl)cc2)c1=O` [Compound I-1973], the IC50 came to 2 nM. Regarding `O=c1[nH]/c(=N\c2ccc(OC3CCC3)cc2)n(Cc2ccc(Cl)cc2)c(=O)n1CC(CO)CO` [Compound I-1974], the IC50 stood at 7 nM. To `Cc1cc(Oc2ccc(/N=c3\[nH]c(=O)n(CCC(=O)O)c(=O)n3CC3CCC(C)CC3)cc2)ccn1` (centres unmarked) [Compound I-1976] belongs 17 nM.

Take `NC(=O)Cn1c(=O)[nH]/c(=N\c2ccc(Oc3ccnc(O)c3)cc2)n(Cc2ccc(Cl)cc2)c1=O` [Compound I-1977]: the half-maximal inhibitory concentration (IC50) was determined as 5 nM. To `CNC(=O)Cn1c(=O)[nH]/c(=N\c2ccc(Oc3ccnc(O)c3)cc2)n(Cc2ccc(Cl)cc2)c1=O` [Compound I-1978] belongs 5 nM. With `O=C(Cn1c(=O)[nH]/c(=N\c2ccc(Oc3ccnc(O)c3)cc2)n(Cc2ccc(Cl)cc2)c1=O)NCCO` [Compound I-1979] the figure was 4 nM; with `Cc1ccc(Oc2ccc(/N=c3\[nH]c(=O)n(CC(=O)NCCO)c(=O)n3Cc3ccc(Cl)cc3)cc2)cn1` [Compound I-1980], 7 nM; with `CC(C)Oc1ccc(/N=c2\[nH]c(=O)[nH]c(=O)n2Cc2ccc(Cl)cc2)cc1` [Compound I-1981], 354 nM. For `CC1(C)OCC(Cn2c(=O)[nH]/c(=N\c3ccc4nc(C5CC5)sc4c3)n(Cc3ccc(Cl)cc3)c2=O)CO1` [Compound I-1982], the IC50 is 9 nM. With `O=c1[nH]/c(=N\c2ccc3nc(C4CC4)sc3c2)n(Cc2ccc(Cl)cc2)c(=O)n1CC(CO)CO` [Compound I-1983] the figure was 10 nM; with `COc1cc(/N=c2\[nH]c(=O)n(CC3COC(C)(C)OC3)c(=O)n2Cc2ccc(Cl)cc2)ccc1OC(C)C` [Compound I-1984], 9 nM; with `COc1cc(/N=c2\[nH]c(=O)n(CC(CO)CO)c(=O)n2Cc2ccc(Cl)cc2)ccc1OC(C)C` [Compound I-1985], 11 nM. For `O=c1[nH]/c(=N\c2ccc(Oc3ccnc(CO)c3)cc2)n(Cc2ccc(Cl)cc2)c(=O)n1CCO` [Compound I-1986], the IC50 turned out to be 16 nM. With `Cc1cc(Oc2ccc(/N=c3\[nH]c(=O)n(C[C@H](O)CO)c(=O)n3Cc3ccc(Cl)cc3)cc2)ccn1` [Compound I-1987] the figure was 7 nM; with `CCn1c(=O)[nH]/c(=N\c2ccc(Oc3ccccc3C(=O)OC)cc2)n(Cc2ccc(Cl)cc2)c1=O` [Compound I-1988], 391 nM; with `CCOC(=O)COc1ccc(/N=c2\[nH]c(=O)n(CC)c(=O)n2Cc2ccc(Cl)cc2)cc1` [Compound I-1989], 619 nM. To `CCOC(=O)CCn1c(=O)[nH]/c(=N\c2ccc3nc(C)sc3c2)n(CC2CCC(C)CC2)c1=O` (centres unmarked) [Compound I-1990] belongs 2 nM; to `CCn1c(=O)[nH]/c(=N\c2ccc(Oc3ccccc3C(=O)O)cc2)n(Cc2ccc(Cl)cc2)c1=O` [Compound I-1992], 240 nM; to `CCn1c(=O)[nH]/c(=N\c2ccc(Oc3ccc(S(N)(=O)=O)cc3)cc2)n(Cc2ccc(Cl)cc2)c1=O` [Compound I-1993], 6 nM.

On to `Cc1nc2ccc(/N=c3\[nH]c(=O)n(CCC(=O)O)c(=O)n3CC3CCC(C)CC3)cc2s1` (centres unmarked) [Compound I-1994], for which the IC50 was 10 nM.

Take `O=c1[nH]/c(=N\c2ccc(Oc3ccnc(CO)c3)cc2)n(Cc2ccc(Cl)cc2)c(=O)n1CCCO` [Compound I-1995]: the IC50 turned out to be 5 nM. With `CCn1c(=O)[nH]/c(=N\c2ccc(Oc3cncc(C(N)=O)c3)cc2)n(Cc2ccc(Cl)cc2)c1=O` [Compound I-1996] the figure was 4 nM. Take `C[C@@H](Oc1ccc(/N=c2\[nH]c(=O)n(CCC(=O)NCCO)c(=O)n2Cc2ccc(Cl)cc2)cc1)C(F)(F)F` [Compound I-1998]: the IC50 stood at 34 nM. With `C[C@@H](Oc1ccc(/N=c2\[nH]c(=O)n(CC(=O)NCCO)c(=O)n2Cc2ccc(Cl)cc2)cc1)C(F)(F)F` [Compound I-1999], the IC50 was 28 nM. To `COc1cc(/N=c2\[nH]c(=O)n(CCCOC3CCCCO3)c(=O)n2Cc2ccc(Cl)cc2)ccc1OC(C)C` (centres unmarked) [Compound I-2000] belongs 3 nM; to `COc1cc(/N=c2\[nH]c(=O)n(C[C@H]3COC(C)(C)O3)c(=O)n2Cc2ccc(Cl)cc2)ccc1OC(C)C` [Compound I-2001], 5 nM; to `COc1cc(/N=c2\[nH]c(=O)n(CCCO)c(=O)n2Cc2ccc(Cl)cc2)ccc1OC(C)C` [Compound I-2002], 8 nM. With `COc1cc(/N=c2\[nH]c(=O)n(C[C@H](O)CO)c(=O)n2Cc2ccc(Cl)cc2)ccc1OC(C)C` [Compound I-2004] the figure was 13 nM; with `COc1cc(/N=c2\[nH]c(=O)n(CCOC3CCCCO3)c(=O)n2Cc2ccc(Cl)cc2)ccc1OC(C)C` (centres unmarked) [Compound I-2005], 3 nM; with `COc1cc(/N=c2\[nH]c(=O)n(CCO)c(=O)n2Cc2ccc(Cl)cc2)ccc1OC(C)C` [Compound I-2006], 36 nM. Regarding `CCn1c(=O)[nH]/c(=N\c2ccc(Oc3ccnc(OC)n3)cc2)n(Cc2ccc(Cl)cc2)c1=O` [Compound I-2008], the IC50 is 7 nM. With `CCn1c(=O)[nH]/c(=N\c2ccc(Oc3ccccc3C(N)=O)cc2)n(Cc2ccc(Cl)cc2)c1=O` [Compound I-2009] the figure was 472 nM; with `O=c1[nH]/c(=N\c2ccc(OC3CCC3)cc2)n(Cc2ccc(Cl)cc2)c(=O)n1CCO` [Compound I-2010], 54 nM; with `CNC(=O)c1cc(Oc2ccc(/N=c3\[nH]c(=O)n(C)c(=O)n3Cc3ccc(C)cc3)cc2)ccn1` [Compound I-2012], 9 nM. With `CCn1c(=O)[nH]/c(=N\c2ccc(Oc3ccnc(C(=O)NC)c3)cc2)n(Cc2ccc(C)cc2)c1=O` [Compound I-2013] the figure was 3 nM.

In the case of `CCOC(=O)C1(COc2ccc(/N=c3\[nH]c(=O)n(CC)c(=O)n3Cc3ccc(Cl)cc3)cc2)CC1` [Compound I-2014], the IC50 was found to be 360 nM.

With `CCn1c(=O)[nH]/c(=N\c2ccc(Oc3ccc(C)c(C(=O)OC)c3)cc2)n(Cc2ccc(Cl)cc2)c1=O` [Compound I-2015], the IC50 stood at 32 nM. To `CCn1c(=O)[nH]/c(=N\c2ccc(Oc3ccnc(O)n3)cc2)n(Cc2ccc(Cl)cc2)c1=O` [Compound I-2016] belongs 5 nM.

With `CCn1c(=O)[nH]/c(=N\c2ccc(Oc3ccc(C)c(C(=O)O)c3)cc2)n(Cc2ccc(Cl)cc2)c1=O` [Compound I-2017], the 50% inhibitory concentration (IC50) came out at 41 nM.

In the case of `Cn1c(=O)[nH]/c(=N\c2ccc(Oc3ccnc(CO)c3)cc2)n(Cc2ccc(Cl)cc2)c1=O` [Compound I-2018], the IC50 came out at 22 nM.

Regarding `CNC(=O)CCn1c(=O)[nH]/c(=N\c2ccc(OC(C)C)c(Cl)c2)n(CC2CCC(C)CC2)c1=O` (centres unmarked) [Compound I-2019], the concentration for half-maximal inhibition (IC50) worked out at 5 nM. As for `CC1CCC(Cn2c(=O)n(CCC(N)=O)c(=O)[nH]/c2=N\c2ccc(OC(C)C)c(Cl)c2)CC1` (centres unmarked) [Compound I-2020], the IC50 came to 6 nM. With `CCn1c(=O)[nH]/c(=N\c2ccc(OCC3(C(=O)O)CC3)cc2)n(Cc2ccc(Cl)cc2)c1=O` [Compound I-2021] the figure was 230 nM; with `CC1CCC(Cn2c(=O)n(CCO)c(=O)[nH]/c2=N\c2ccc(Oc3ccnc(O)c3)cc2)CC1` (centres unmarked) [Compound I-2022], 7 nM. As to `COC(=O)CCn1c(=O)[nH]/c(=N\c2ccc(OC(C)C)c(Cl)c2)n(Cc2ccc(C)cc2)c1=O` [Compound I-2023], the concentration for half-maximal inhibition (IC50) turned out to be 4 nM.

For the compound `O=c1[nH]/c(=N\c2ccc3nc(C4CC4)sc3c2)n(Cc2ccc(Cl)cc2)c(=O)n1CCOC1CCCCO1` (centres unmarked) [Compound I-2024], the IC50 was 5 nM. Regarding `Cc1cc2cc(/N=c3\[nH]c(=O)n(CCCOC4CCCCO4)c(=O)n3Cc3ccc(Cl)cc3)ccc2o1` (centres unmarked) [Compound I-2025], the IC50 came to 5 nM. To `O=c1[nH]/c(=N\c2ccc3nc(C4CC4)sc3c2)n(Cc2ccc(Cl)cc2)c(=O)n1CCO` [Compound I-2026] belongs 22 nM; to `Cc1cc2cc(/N=c3\[nH]c(=O)n(CCCO)c(=O)n3Cc3ccc(Cl)cc3)ccc2o1` [Compound I-2027], 17 nM; to `CCn1c(=O)[nH]/c(=N\c2ccc(Oc3cccc(C(=O)OC)c3)cc2)n(Cc2ccc(C)cc2)c1=O` [Compound I-2028], 13 nM. With `CCn1c(=O)[nH]/c(=N\c2ccc(Oc3ccc(C(=O)OC)cc3)cc2)n(Cc2ccc(C)cc2)c1=O` [Compound I-2029] the figure was 4 nM; with `COC(=O)c1ccc(Oc2ccc(/N=c3\[nH]c(=O)n(C)c(=O)n3Cc3ccc(C)cc3)cc2)cc1` [Compound I-2030], 6 nM. To `COC(=O)c1cccc(Oc2ccc(/N=c3\[nH]c(=O)n(C)c(=O)n3Cc3ccc(C)cc3)cc2)c1` [Compound I-2031] belongs 52 nM; to `CCn1c(=O)[nH]/c(=N\c2ccc(Oc3ccc(S(N)(=O)=O)cc3)cc2)n(Cc2ccc(C)cc2)c1=O` [Compound I-2032], 4 nM. Regarding `CCn1c(=O)[nH]/c(=N\c2ccc(-n3cc(C(=O)OC)ccc3=O)cc2)n(Cc2ccc(Cl)cc2)c1=O` [Compound I-2033], the IC50 turned out to be 622 nM. To `CCn1c(=O)[nH]/c(=N\c2ccc(Oc3cccc(C(=O)O)c3)cc2)n(Cc2ccc(C)cc2)c1=O` [Compound I-2034] belongs 9 nM; to `CCn1c(=O)[nH]/c(=N\c2ccc(Oc3ccc(C(=O)O)cc3)cc2)n(Cc2ccc(C)cc2)c1=O` [Compound I-2035], 22 nM. With `CCn1c(=O)[nH]/c(=N\c2ccc(Oc3ccsc3C(=O)OC)cc2)n(Cc2ccc(Cl)cc2)c1=O` [Compound I-2037] the figure was 340 nM; with `Cc1[nH]c2ccc(/N=c3\[nH]c(=O)n(CCOC4CCCCO4)c(=O)n3Cc3ccc(Cl)cc3)cc2c1C` (centres unmarked) [Compound I-2038], 13 nM; with `Cc1[nH]c2ccc(/N=c3\[nH]c(=O)n(C[C@H]4COC(C)(C)O4)c(=O)n3Cc3ccc(Cl)cc3)cc2c1C` [Compound I-2039], 9 nM. With `O=c1ccccn1-c1ccc(/N=c2\[nH]c(=O)n(CCOC3CCCCO3)c(=O)n2Cc2ccc(Cl)cc2)cc1` (centres unmarked) [Compound I-2040] the figure was 23 nM.

(Values after patent publication US9718790B2, “Triazine derivative and pharmaceutical composition having an analgesic activity comprising the same” (SHIONOGI & CO., LTD., priority 2010, dated 2017).)
